Where two headings read alike, the source gives them in different places.
Key:
MIA Paca-2 cells = test: Anti-proliferative effect by Cell Titer-Glo, MIA Paca-2; format: cell-based; details: Homo sapiens, read-out: IC50 measured value MIA Paca-2
Method: Compound solutions of different concentration gradients were prepared. DMSO was dissolved to a concentration of 10 mM test compound and 10 mM reference compound AZD1775, and the compounds were serially diluted in culture medium for a total of 9 dose points, with 2 parallel replicates set at each concentration. The cell growth group without compound was used as a positive control (maximum signal control) and the medium was used as a negative control (minimum signal control), while ensuring that the final level of DMSO in each reaction well was 0.2%. After removing the medium from the 384-well plate, 25 ul of the configured compound at different concentrations was transferred into the well plate and the compound and cells were incubated in the cell incubator at 37° C. with 5% CO2 for 3 days.
The 384-well plates were removed from the cell incubator and allowed to equilibrate for 1 h to room temperature. 25 ul of Cell Titer-Glo assay was added to each well, lysed on a shaker for 2 min and then read out (Luminescence) using a BMG PHERAStar after 10 min incubation. Calculate the inhibition rate from the luminescence signal: first calculate the average of the positive control (maximum signal control) and the negative control (minimum signal control).
[formula] to calculate the rate of inhibition of the cells by different concentrations of the compounds. The IC50 of the compound on cell activity inhibition was calculated by fitting a log(inhibitor) vs. response-Variable slope model to GraphPad Prism 6. The fitted equation was: Y=Bottom+(Top−Bottom)/(1+10^((Log IC50−X)*HillSlope)), where Y represents the rate of inhibition and X represents the concentration of the known compound after Log.

[1] = Membrane permeability study (Caco-2); format: in vitro ADME; details: human; for Papp A→B at 90 min, 10 µM / Papp B→A at 90 min, 10 µM: pH 7.4, Caco-2, 10 μM; for Papp A→B at 90 min, 10 µM: A to B; for Papp B→A at 90 min, 10 µM: B to A; for efflux ratio at 90 min, 10 µM: Caco-2, pH 7.4, read-out: Efflux Ration
Method: Caco-2 cells were purchased from the […] (Rockville, MD). The cell culture medium was modified Eagle's medium (MEM) containing 10% inactivated fetal bovine serum and 1% non-essential amino acids. Cells were inoculated on polycarbonate filter membranes (Cat no. 3396) and incubated at 37° C. in a 5% CO2 incubator.
The cells were incubated for 21-28 days after inoculation for transport experiments and the apparent permeability (Papp) of Lucifer Yellow was used to characterize and verify the compactness of the cell monolayer. A stock solution of 10 mM was prepared by dissolving the compound in DMSO and diluted using Hanks Balanced Salt Solution (HBSS, Invitrogen, Cat #14025-092) containing 25 mM HEPES (pH 7.4) to obtain the working solution. A 10 μM working solution of the compound to be tested was added to the apical side and basolateral side of Caco-2 and incubated at 37° C. for 90 min. After the incubation, dilute the samples on the apical side and basolateral side, and the concentrations of compounds on the apical and basolateral sides were detected by LC-MS/MS, and the concentrations of the compounds were quantified by standard curve.

Wee1 protein = biological target: T1, Wee1 protein (Homo sapiens, UniProt P30291); test: Binding of compound to Wee1 protein and Tracer 178 by TR-FRET; details: inhibitory activity against Wee1 kinase, read-out: IC50 measured value
T1 construct: purchased Thermo Fisher PR7373A
T1 sequence (P30291 whole entry): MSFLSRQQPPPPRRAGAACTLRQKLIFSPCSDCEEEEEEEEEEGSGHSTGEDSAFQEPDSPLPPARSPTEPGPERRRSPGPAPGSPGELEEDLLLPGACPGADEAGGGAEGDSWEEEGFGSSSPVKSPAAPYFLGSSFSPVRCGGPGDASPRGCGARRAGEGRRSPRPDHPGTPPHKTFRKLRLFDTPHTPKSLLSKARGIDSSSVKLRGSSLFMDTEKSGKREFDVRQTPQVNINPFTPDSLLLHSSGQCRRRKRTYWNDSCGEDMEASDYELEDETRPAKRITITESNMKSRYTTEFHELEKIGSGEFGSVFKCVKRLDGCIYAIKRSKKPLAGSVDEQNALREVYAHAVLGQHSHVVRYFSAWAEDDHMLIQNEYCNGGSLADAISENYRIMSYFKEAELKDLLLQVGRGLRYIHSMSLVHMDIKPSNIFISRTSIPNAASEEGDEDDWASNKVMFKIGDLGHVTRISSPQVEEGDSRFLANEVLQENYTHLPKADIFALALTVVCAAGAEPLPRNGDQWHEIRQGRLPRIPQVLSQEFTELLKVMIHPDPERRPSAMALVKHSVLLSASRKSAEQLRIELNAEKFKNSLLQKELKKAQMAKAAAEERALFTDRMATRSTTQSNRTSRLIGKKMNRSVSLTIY
Method: First, solutions of the compounds in different concentration gradients were prepared. […] DMSO was added as a positive control (maximal signal control) and a negative control (minimal signal control) and a final level of 0.25% DMSO was ensured in each reaction well.
WEE1 (Thermo Fisher, Cat #PR7373A) protein in buffer (50 mM Hepes pH 7.5, 10 mM MgCl2, 1 mM EGTA, 0.01% Brij-35) at 15 nM) in different concentrations of compound, and Tracer 178 (Invitrogen, PV5593) and MAb Anti-GST-Eu crypate (Cisbio, 61GSTKLA) were added to 384-well plates (Corning, cat #3574), centrifuged at 1000 rpm for 1 min and the 384-well plates were incubated in a constant temperature shaker for 60 min at 25° C. and 300 rpm. Tracer 178 and MAb Anti-GST-Eu crypate were prepared in buffer (50 mM HEPES pH 7.5, 10 mM MgCl2, 1 mM EGTA, 0.01% Brij-35) with a final reaction concentration of 50 nM for Tracer 178 and a final concentration of 2 nM for MAb Anti-GST-Eu crypate, where the negative control (minimal signal control) used an equal amount of buffer in place of the protein solution.
After incubation, readings were performed using BMG PHERAStar (excitation light at 337 nm and emission light at wavelength values of 620 nm and 665 nm to read the fluorescence signal values). […] The IC50 for inhibition of enzyme activity by the compounds was then calculated using GraphPad Prism 6 and fitted with a log (inhibitor) vs. response-Variable slope mode. The fitting equation was: Y=Bottom+(Top-Bottom)/(1+10^((Log IC50−X)*HillSlope)), where Y represents the percentage of residual enzyme activity known and X represents the known concentration of compound after the logarithm.

CYP3A4 = CYP3A4 (Homo sapiens, UniProt P08684); test: Inhibition of cytochrome P450, CYP3A4; format: in vitro ADME; details: CYP3A4 enzyme, pH 7.4, probe BOMCC, read-out: CYP inhibition/% 3A4; for inhibition at 30 min, 1 µM: compound concentration 1 μM; for inhibition at 30 min, 10 µM: compound concentration 10 μM
Sequence of CYP3A4 (P08684 whole entry, canonical isoform): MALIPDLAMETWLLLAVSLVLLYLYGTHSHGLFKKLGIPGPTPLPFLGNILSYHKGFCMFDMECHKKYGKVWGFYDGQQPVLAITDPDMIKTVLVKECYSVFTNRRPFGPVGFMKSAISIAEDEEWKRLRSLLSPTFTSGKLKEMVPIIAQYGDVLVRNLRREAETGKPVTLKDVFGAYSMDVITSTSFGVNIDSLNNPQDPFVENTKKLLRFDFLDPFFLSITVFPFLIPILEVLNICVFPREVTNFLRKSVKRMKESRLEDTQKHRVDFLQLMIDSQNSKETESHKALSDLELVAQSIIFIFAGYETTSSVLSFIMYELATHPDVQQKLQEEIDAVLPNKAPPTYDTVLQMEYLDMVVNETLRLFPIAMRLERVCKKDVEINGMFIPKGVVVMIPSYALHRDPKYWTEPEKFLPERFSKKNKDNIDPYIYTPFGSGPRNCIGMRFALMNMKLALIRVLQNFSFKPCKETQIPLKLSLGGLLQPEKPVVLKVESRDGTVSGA
Method: Enzymatic experiments were performed to quantify the inhibition of CYP450 enzyme activity of each isoform of CYP450 by small molecule inhibitors through fluorescence generated by the oxidation of the substrate by cytochrome P450. […] The Solution B composition used for the experiment was: 40 U/mL G6PDH (Sigma-aldrich, Cat #G6378). The substrate mix was 0.05× Solution A, 0.01× Solution B, 50 mM Potassium Phosphate, 0.01 mM BOMCC/0.01 mM EOMCC/0.001 mM DBOMF. […] The data were analyzed and processed using GraphPad Prism 6 software to obtain IC50 values.

[2] = 72 h, MIA Paca-2 cells, 3 days, Cell Titer-Glo

IC50 (MIA Paca-2 cells; [2]) [µM]	Papp A→B at 90 min, 10 µM [1] [×10⁻⁶ cm/s]	Papp B→A at 90 min, 10 µM [1] [×10⁻⁶ cm/s]	IC50 (Wee1 protein) [µM]	efflux ratio at 90 min, 10 µM [1]	inhibition at 30 min, 1 µM (CYP3A4) [%]	inhibition at 30 min, 10 µM (CYP3A4) [%]	SMILES	IC50 (MIA Paca-2 cells; MIA PaCa-2, 72 h) [µM]
0.1 to 1	14.5	35.3	–	–	–	–	C=CCn1c(=O)c2cnc(Nc3ccc(N4CCN(C)CC4)cc3)nc2n1-c1cccc(C(C)(C)O)n1 [AZD-1775, reference compound]	–
–	–	–	0.01 to 0.1	–	0	-10.6	CN1CCN(c2ccc(Nc3ncc4cnn(-c5cccc(C(C)(C)O)n5)c4n3)cc2)CC1 [Compound 2]	–
–	–	–	0.01 to 0.1	–	-26.1	-25.7	CS(C)(=O)=Nc1cccc(-n2ncc3cnc(Nc4ccc(N5CCOCC5)cc4)nc32)n1 [Compound 6]	–
< 0.1	5.86	20.8	0.001 to 0.01	3.54	–	–	Cc1cc(Nc2ncc3cnn(-c4cccc(N=S(C)(C)=O)n4)c3n2)ccc1N1CCC(N(C)C)CC1 [Compound 14]	–
0.1 to 1	8.07	20.3	0.001 to 0.01	2.51	–	–	Cc1cc(Nc2ncc3cnn(-c4cccc(N=S(C)(C)=O)n4)c3n2)ccc1N1CCN(C)CC1 [Compound 16]	–

SMILES	IC50 (MIA Paca-2 cells; [2]) [µM]	Papp A→B at 90 min, 10 µM [1] [×10⁻⁶ cm/s]	Papp B→A at 90 min, 10 µM [1] [×10⁻⁶ cm/s]	IC50 (Wee1 protein) [µM]	efflux ratio at 90 min, 10 µM [1]	inhibition at 30 min, 1 µM (CYP3A4) [%]	inhibition at 30 min, 10 µM (CYP3A4) [%]	IC50 (MIA Paca-2 cells; MIA PaCa-2, 72 h) [µM]
CN1CCN(c2ccc(Nc3ncc4cnn(-c5cccc(N=S(C)(C)=O)n5)c4n3)cc2)CC1 [Compound 1]	–	8.93	41.7	0.001 to 0.01	4.67	8.1	10.9	0.1 to 1
